Laboratory results as given in patent US20250122223A1, “HETEROCYCLIC COMPOUNDS AS UBIQUITIN SPECIFIC PROTEASE 7 INHIBITORS” (ALMAC DISCOVERY LIMITED, priority 2022, published 2025).
Read-outs that look alike come from different tables or passages of the source.

Biological target: USP7 (Homo sapiens (Human), UniProt Q93009)
Experiment: USP7 fluorescence polarisation (FP) assay with ubiquitin-Lys-TAMRA substrate
Type: biochemical
Conditions: biochemical inhibition
Description: USP7 activity was monitored in a fluorescence polarisation (FP) homogeneous assay using the isopeptide ubiquitin-Lys-TAMRA substrate (U-558, Boston Biochem). Full-length USP7 was purchased from Boston Biochem (His6-USP7FL, E-519). Unless otherwise stated, all other reagents were purchased from Sigma-Aldrich. Enzymatic reactions were conducted in black flat-bottom low volume polystyrene 384-well plates (Grenier) and 15 μL total volume. USP7 (2.5 nM, 5 μL) was incubated in assay buffer (50 mM HEPES (pH 7.2), 150 mM NaCl, 5 mM DTT, 0.05% BSA (w/v), 0.05% CHAPS) in the presence or absence of inhibitor (5 μL). Inhibitors were stored as 10 mM DMSO stocks in an inert environment (low humidity, dark, low oxygen, room temperature) using a Storage Pod System and serial dilutions were prepared in buffer just prior to the assay (from 200 to 0.003 μM, 11 dp curve). Following incubation at room temperature for 30 min, the enzymatic reactions were initiated by dispensing the Ub substrate (50 nM, 5 μL). FP was measured every 5 min over a period of 1.5 h (within the linear range of the assay) using a Pherastar FSX (BMG Labtech) exciting at 530 nm and measuring the amount of parallel and perpendicular light at 575 nm. The FP signal was subsequently normalised to the control without compound present. Data were plotted and fitted, and the concentrations resulting in 50% inhibition (IC50) were calculated using the non-linear regression curve fitting model using GraphPad Prism.

[1] = read-out: USP7 IC50 activity (Table 3a, classes)
[2] = unit not given in Table 3b (Table 1 and key of Table 3a use μM), read-out: USP7 IC50 activity (Table 3b)

USP7, sequence (Q93009 whole entry): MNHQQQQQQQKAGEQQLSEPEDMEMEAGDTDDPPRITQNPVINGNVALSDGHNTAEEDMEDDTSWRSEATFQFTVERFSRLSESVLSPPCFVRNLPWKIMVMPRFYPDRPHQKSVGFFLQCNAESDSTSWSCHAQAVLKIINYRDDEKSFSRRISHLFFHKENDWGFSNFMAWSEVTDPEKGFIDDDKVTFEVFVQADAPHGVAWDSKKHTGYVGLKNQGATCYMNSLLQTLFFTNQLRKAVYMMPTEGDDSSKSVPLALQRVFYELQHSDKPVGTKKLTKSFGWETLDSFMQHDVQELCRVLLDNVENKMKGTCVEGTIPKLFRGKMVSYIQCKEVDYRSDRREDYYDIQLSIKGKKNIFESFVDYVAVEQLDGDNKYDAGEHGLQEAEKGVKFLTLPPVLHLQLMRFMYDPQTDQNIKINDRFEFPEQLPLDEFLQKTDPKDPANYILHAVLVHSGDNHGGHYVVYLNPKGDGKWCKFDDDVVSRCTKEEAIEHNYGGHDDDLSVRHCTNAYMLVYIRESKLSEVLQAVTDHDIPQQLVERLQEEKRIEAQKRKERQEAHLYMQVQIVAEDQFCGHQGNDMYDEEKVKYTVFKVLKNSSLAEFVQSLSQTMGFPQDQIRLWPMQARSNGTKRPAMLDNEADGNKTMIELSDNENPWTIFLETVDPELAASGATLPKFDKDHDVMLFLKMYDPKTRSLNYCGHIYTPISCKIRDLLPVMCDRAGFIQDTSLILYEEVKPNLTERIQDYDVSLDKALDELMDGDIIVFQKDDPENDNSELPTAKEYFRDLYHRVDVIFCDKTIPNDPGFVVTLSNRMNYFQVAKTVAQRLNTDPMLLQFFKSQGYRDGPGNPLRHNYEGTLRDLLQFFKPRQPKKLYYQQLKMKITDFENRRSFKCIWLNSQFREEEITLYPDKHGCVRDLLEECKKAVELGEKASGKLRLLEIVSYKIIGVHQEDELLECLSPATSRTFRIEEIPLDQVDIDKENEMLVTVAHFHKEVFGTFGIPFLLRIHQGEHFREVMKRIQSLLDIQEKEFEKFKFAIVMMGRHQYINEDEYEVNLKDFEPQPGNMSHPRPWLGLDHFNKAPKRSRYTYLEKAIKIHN

| SMILES | IC50 [1] [µM] | IC50 [2] [µM] |
| --- | --- | --- |
| Cc1cc(-n2c(Cl)cc3c(=O)n(CC4(O)CCN(C(=O)c5ccc(C(F)(F)F)cc5)CC4)cnc32)ccc1[C@H]1CO[C@H](C)CN1 [Example 56, 6-Chloro-3-((4-hydroxy-1-(4-(trifluoromethyl)benzol)piperidin-4-yl)methyl)-7-(3-methyl-4-((3S,6R)-6-methylmorpholin-3-yl)phenyl)-3,7-dihydro-4H-pyrrolo[2,3-d]pyrimidin-4-one] | 0.1 to 0.25 | 0.113 |
| C[C@H]1CN[C@H](c2ccc(-n3c(Cl)cc4c(=O)n(CC5(O)CCN(C(=O)CCC6CC6)CC5)cnc43)cc2)CO1 [Example 103, 6-Chloro-3-((1-(3-cyclopropylpropanoyl)-4-hydroxypiperidin-4-yl)methyl)-7-(4-((3R,6S)-6-methylmorpholin-3-yl)phenyl)-3,7-dihydro-4H-pyrrolo[2,3-d]pyrimidin-4-one] | 0.1 to 0.25 | 0.211 |
| C[C@H]1CN[C@H](c2ccc(-n3c(Cl)cc4c(=O)n(CC5(O)CCN(C(=O)c6ccccc6F)CC5)cnc43)cc2)CO1 [Example 36, 6-Chloro-3-((1-(2-fluorobenzoyl)-4-hydroxypiperidin-4-yl)methyl)-7-(4-((3R,6S)-6-methylmorpholin-3-yl)phenyl)-3,7-dihydro-4H-pyrrolo[2,3-d]pyrimidin-4-one] | 0.25 to 2 | 0.511 |
| Cc1ccc(C(=O)N2CCC(O)(Cn3cnc4c(cc(Cl)n4-c4ccc([C@H]5CO[C@H](C)CN5)c(C)c4)c3=O)CC2)c(Cl)c1 [Example 57, 6-Chloro-3-((1-(2-chloro-4-methylbenzoyl)-4-hydroxypiperidin-4-yl)methyl)-7-(3-methyl-4-((3S,6R)-6-methylmorpholin-3-yl)phenyl)-3,7-dihydro-4H-pyrrolo[2,3-d]pyrimidin-4-one] | < 0.1 | 0.084 |
| C[C@H]1CN[C@H](c2ccc(-n3c(Cl)cc4c(=O)n(CC5(O)CCN(C(=O)c6ccccc6Cl)CC5)cnc43)cc2)CO1 [Example 31, 6-Chloro-3-((1-(2-chlorobenzoyl)-4-hydroxypiperidin-4-yl)methyl)-7-(4-((3R,6S)-6-methylmorpholin-3-yl)phenyl)-3,7-dihydro-4H-pyrrolo[2,3-d]pyrimidin-4-one] | 0.1 to 0.25 | 0.144 |

Other lines, results leading:

| IC50 [1] [µM] | IC50 [2] [µM] | SMILES |
| --- | --- | --- |
| 0.1 to 0.25 | 0.132 | CC1(C(=O)N2CCC(O)(Cn3cnc4c(cc(Cl)n4-c4ccc(C5(C)COCCN5)cc4)c3=O)CC2)CC1 (centres unmarked) [Example 3, 6-Chloro-3-((4-hydroxy-1-(1-methylcyclopropane-1-carbonyl)piperidin-4-yl)methyl)-7-(4-(3-methylmorpholin-3-yl)phenyl)-3,7-dihydro-4H-pyrrolo[2,3-d]pyrimidin-4-one] |
| < 0.1 | 0.038 | O=C(c1ccc(Cl)cc1)N1CCC(O)(Cn2cnc3c(cc(Cl)n3-c3ccc([C@H]4COCCN4)cc3)c2=O)CC1 (single isomer, unassigned) [Example 76] |
| 0.1 to 0.25 | 0.143 | CC1(C)CN[C@@H](c2ccc(-n3c(Cl)cc4c(=O)n(CC5(O)CCN(C(=O)c6ccc(Cl)cc6)CC5)cnc43)cc2)CO1 (single isomer, unassigned) [Example 23] |
| < 0.1 | 0.094 | CC1(C(=O)N2CCC(O)(Cn3cnc4c(cc(Cl)n4-c4ccc([C@@H]5COCCN5)cc4)c3=O)CC2)CC1 (single isomer, unassigned) [Example 71] |
| 0.1 to 0.25 | 0.156 | C[C@H]1CN[C@H](c2ccc(-n3c(Cl)cc4c(=O)n(CC5(O)CCN(C(=O)c6ccc(C(F)(F)F)cc6)CC5)cnc43)cc2)CO1 [Example 65, 6-Chloro-3-((4-hydroxy-1-(4-(trifluoromethyl)benzoyl)Piperidin-4-yl)methyl)-7-(4-((3R,6S)-6-methylmorpholin-3-yl)phenyl)-3,7-dihydro-4H-pyrrolo[2,3-d]pyrimidin-4-one] |
